Among the data in US20230051589A1, “COMPOUNDS AND COMPOSITIONS FOR TREATING CONDITIONS ASSOCIATED WITH NLRP ACTIVITY” (Novartis AG, priority 2018, published 2023) are IC50 values, retold here.

SMILES strings stand for the structures.

One assay relates to IL-1β production in PMA-differentiated THP-1 cells. The assay is described as follows: IL-1β production in PMA-differentiated THP-1 cells stimulated with gramicidin (hTHP-1 assay, 2% fetal bovine serum; Procedures 1-3). The assay is classed as cell-based, human. To be noted: Homo sapiens, THP-1, hTHP-1 assay containing 2% fetal bovine serum, Table B2, class symbols; read-out: IC50. In a few lines: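 PMA-primed THP-1 cells (20 ng/ml PMA, 16-18 h) in RPMI with 2% FBS were pre-incubated with compounds for 1 h, from 100 μM downward in 3-fold steps (0.37% DMSO final), then stimulated with 5 μM gramicidin for 2 h. IL-1β in the supernatant was quantified by HTRF.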
As to `CNCc1cc(F)c(S(N)(=O)=NC(=O)Nc2c3c(cc4c2CCC4)CCC3)s1` (stereo not shown) [Example 481, 3-Fluoro-N′-((1,2,3,5,6,7-hexahydro-s-indacen-4-yl)carbamoyl)-5-((methylamino)methyl)thiophene-2-sulfonimidamide], the 50% inhibitory concentration (IC50) – broadly, the midpoint of a concentration-inhibition curve – fell in the range of 0.04 to 0.2 µM. The same measure, in the same setting: with `CC(C)(O)c1cc(C#N)cc(S(N)(=O)=NC(=O)Nc2c3c(c(C#N)c4c2CCC4)CCC3)c1` (stereo not shown) [Example 482, 3-Cyano-N′-((8-cyano-1,2,3,5,6,7-hexahydro-s-indacen-4-yl)carbamoyl)-5-(2-hydroxypropan-2-yl)benzenesulfonimidamide] the figure was 1 to 5 µM; with `NS(=O)(=NC(=O)Nc1c2c(cc3c1CCC3)CCC2)c1ccc(C2CCCC2)nc1` (stereo not shown) [Example 483, 6-Cyclopentyl-N′-((1,2,3,5,6,7-hexahydro-s-indacen-4-yl)carbamoyl)pyridine-3-sulfonimidamide], 1 to 5 µM. Same read-out and setting: with `CN(C)C(c1ccc(S(N)(=O)=NC(=O)Nc2c3c(cc4c2CCC4)CCC3)cc1)C1CC1` (stereo not shown) [Example 484, 4-(Cyclopropyl(dimethylamino)methyl)-N′-((1,2,3,5,6,7-hexahydro-s-indacen-4-yl)carbamoyl)benzenesulfonimidamide] the figure was 0.2 to 1 µM; with `NS(=O)(=NC(=O)Nc1c2c(cc3c1CCC3)CCC2)c1ccc(C(F)F)nc1` (stereo not shown) [Example 485, 6-(Difluoromethyl)-N′-((1,2,3,5,6,7-hexahydro-s-indacen-4-yl)carbamoyl)pyridine-3-sulfonimidamide], 1 to 5 µM. Still for that read-out and setting: for `CNC(C)(C)c1ccc(S(N)(=O)=NC(=O)Nc2c3c(cc4c2CCC4)CCC3)cc1` (stereo not shown) [Example 486, N′-((1,2,3,5,6,7-hexahydro-s-indacen-4-yl)carbamoyl)-4-(2-(methylamino)propan-2-yl) benzenesulfonimidamide] the value was 1 to 5 µM; for `CN(Cc1ccc(S(N)(=O)=NC(=O)Nc2c3c(cc4c2CCC4)CCC3)cc1)CC(F)(F)F` (stereo not shown) [Example 487, N′-((1,2,3,5,6,7-hexahydro-s-indacen-4-yl)carbamoyl)-4-((methyl(2,2,2-trifluoroethyl)amino)methyl) benzenesulfonimidamide], 1 to 5 µM; for `NS(=O)(=NC(=O)Nc1c2c(cc3c1CCC3)CCC2)c1ccccc1` (stereo not shown) [Example 488, N′-((1,2,3,5,6,7-hexahydro-s-indacen-4-yl)carbamoyl)benzenesulfonimidamide], 5 to 30 µM. `CC(C)N(C)c1ccc(S(N)(=O)=NC(=O)Nc2c3c(cc4c2CCC4)CCC3)cc1` (stereo not shown) [Example 489, N′-((1,2,3,5,6,7-hexahydro-s-indacen-4-yl)carbamoyl)-4-(isopropyl(methyl)ammo) benzenesulfonimidamide]: the IC50 fell in the range of 5 to 30 µM. The same measure, in the same setting: for `CC(C)(O)c1cc(S(N)(=O)=NC(=O)Nc2c3c(c(C#N)c4c2CCC4)CCC3)nn1-c1ccccc1` (stereo not shown) [Example 490, N′-((8-cyano-1,2,3,5,6,7-hexahydro-s-indacen-4-yl)carbamoyl)-5-(2-hydroxypropan-2-yl)-1-phenyl-1H-pyrazole-3-sulfonamide] the value was 0.2 to 1 µM. Still for that read-out and setting: for `CN(C)C(c1ccc(S(N)(=O)=NC(=O)Nc2c3c(cc4c2CCC4)CCC3)cc1)C(F)(F)F` (stereo not shown) [Example 492, 4-(1-(Dimethylamino)-2,2,2-trifluoroethyl)-N′-((1,2,3,5,6,7-hexahydro-s-indacen-4-yl)carbamoyl)benzenesulfonimidamide] the value was 1 to 5 µM; for `NS(=O)(=NC(=O)Nc1c2c(cc3c1CCC3)CCC2)c1ccc(OC(F)F)cc1` (stereo not shown) [Example 493, 4-(Difluoromethoxy)-N′-((1,2,3,5,6,7-hexahydro-s-indacen-4-yl)carbamoyl) benzenesulfonimidamide], 5 to 30 µM; for `CC(C)c1cc2c(cc1NC(=O)N=S(N)(=O)c1cnc(C(C)(C)O)s1)CCC2` (stereo not shown) [Example 494, 2-(2-Hydroxypropan-2-yl)-N′-((6-isopropyl-2,3-dihydro-1H-inden-5-yl)earbamoyl)thiazole-5-sulfonimidamide], 0.2 to 1 µM. Turning to `CNCC1(c2ccc(S(N)(=O)=NC(=O)Nc3c4c(cc5c3CCC5)CCC4)c(F)c2)CC1` (stereo not shown) [Example 495, 2-Fluoro-N′-((1,2,3,5,6,7-hexahydro-s-indacen-4-yl)carbamoyl)-4-(1-((methylamino)methyl)cyclopropyl)benzenesulfonimidamide], the concentration for half-maximal inhibition (IC50) lay in the range of 1 to 5 µM. Turning to `CN(C)Cc1cnc(S(N)(=O)=NC(=O)Nc2c3c(cc4c2CCC4)CCC3)c(F)c1` (stereo not shown) [Example 497, 5-((Dimethylamino)methyl)-3-fluoro-N′-((1,2,3,5,6,7-hexahydro-s-indacen-4-yl)carbamoyl)pyridine-2-sulfonimidamide], the IC50 is 1 to 5 µM.

For the compound `CC(C)(O)c1csc(S(N)(=O)=NC(=O)Nc2c3c(c(C#N)c4c2CCC4)CCC3)n1` (stereo not shown) [Example 499, N′-((8-Cyano-1,2,3,5,6,7-hexahydro-s-indacen-4-yl)carbamoyl)-4-(2-hydroxypropan-2-yl)thiazole-2-sulfonimidamide], the 50% inhibitory concentration (IC50) lay in the range of 0.04 to 0.2 µM. Still for that read-out and setting: with `NS(=O)(=NC(=O)Nc1c2c(cc3c1CCC3)CCC2)c1cccc(CN2CCOCC2)c1` (stereo not shown) [Example 503, N′-((1,2,3,5,6,7-hexahydro-s-indacen-4-yl)carbamoyl)-3-(morpholinomethyl)benzenesulfonimidamide] the figure was 1 to 5 µM. Still for that read-out and setting: with `COCCN(C)Cc1cccc(S(N)(=O)=NC(=O)Nc2c3c(cc4c2CCC4)CCC3)c1` (stereo not shown) [Example 504] the figure was 5 to 30 µM; with `CN1CCN(Cc2cccc(S(N)(=O)=NC(=O)Nc3c4c(cc5c3CCC5)CCC4)c2)CC1` (stereo not shown) [Example 505, N′-((1,2,3,5,6,7-hexahydro-s-indacen-4-yl)carbamoyl)-3-((4-methylpiperazin-1-yl)methyl) benzenesulfonimidamide], 5 to 30 µM; with `CN(C)CCN(C)Cc1cccc(S(N)(=O)=NC(=O)Nc2c3c(cc4c2CCC4)CCC3)c1` (stereo not shown) [Example 506, 3-(((2-(Dimethylamino)ethyl) (methyl)amino)methyl)-N′-((1,2,3,5,6,7-hexahydro-s-indacen-4-yl)carbamoyl)benzenesulfonimidamide], 5 to 30 µM. Same read-out and setting: with `CN(Cc1cccc(S(N)(=O)=NC(=O)Nc2c3c(cc4c2CCC4)CCC3)c1)CC1CC1` (stereo not shown) [Example 507, 3-(((Cyclopropylmethyl) (methyl)amino)methyl)-N′-((1,2,3,5,6,7-hexahydro-s-indacen-4-yl)carbamoyl)benzenesulfonimidamide] the figure was 5 to 30 µM.

`CNCc1cccc(S(N)(=O)=NC(=O)Nc2c3c(cc4c2CCC4)CCC3)c1` (stereo not shown) [Example 508, N′-((1,2,3,5,6,7-hexahydro-s-indacen-4-yl)carbamoyl)-3-((methylamino)methyl) benzenesulfonimidamide]: the IC50 was 5 to 30 µM. The same measure, in the same setting: with `CC(C)(O)c1cnc([S@](N)(=O)=NC(=O)Nc2c3c(cc4c2C(O)CC4)CCC3)s1` (stereo partly drawn) [Example 510, (R)-N′-((3-hydroxy-1,2,3,5,6,7-hexahydro-s-indacen-4-yl)carbamoyl)-5-(2-hydroxypropan-2-yl)thiazole-2-sulfonimidamide] the figure was 0.2 to 1 µM; with `CC(C)(O)c1cnc([S@](N)(=O)=NC(=O)Nc2c3c(cc4c2CCC4O)CCC3)s1` (stereo partly drawn) [Example 512, (R)-N′-((1-hydroxy-1,2,3,5,6,7-hexahydro-s-indacen-4-yl)carbamoyl)-5-(2-hydroxypropan-2-yl)thiazole-2-sulfonimidamide], 1 to 5 µM. Still for that read-out and setting: for `CCCc1c2c(c(NC(=O)N=S(N)(=O)c3cc(C(C)(C)O)n(-c4ccccc4)n3)c3c1CCC3)CCC2` (stereo not shown) [Example 513, 5-(2-hydroxypropan-2-yl)-1-phenyl-N′-((8-propyl-1,2,3,5,6,7-hexahydro-s-indacen-4-yl)carbamoyl)-1H-pyrazole-3-sulfonimidamide] the value was 5 to 30 µM. `CC(C)(O)c1ncc([S@](N)(=O)=NC(=O)Nc2cc(CCCl)cc3c2CCC3)s1` [Example 514, (R)-N′-((6-(2-chloroethyl)-2,3-dihydro-1H-inden-4-yl)carbamoyl)-2-(2-hydroxypropan-2-yl)thiazole-5-sulfonimidamide]: the IC50 is 1 to 5 µM.

As for `CNCc1cc(F)c(S(N)(=O)=NC(=O)Nc2c3c(cc4c2CC4)CCC3)s1` (stereo not shown) [Example 669, 3-Fluoro-5-((methylamino)methyl)-N′-((2,4,5,6-tetrahydro-1H-cyclobuta[f]inden-3-yl)carbamoyl)thiophene-2-sulfonimidamide], the IC50 lay in the range of 0.04 to 0.2 µM.

The same assay, now with this note: Homo sapiens, THP-1, hTHP-1 assay containing 2% fetal bovine serum, Table B2, given as bound; read-out: IC50.
On to `CC(C)(O)c1cnc([S@@](N)(=O)=NC(=O)Nc2c3c(cc4c2CCC4O)CCC3)s1` (stereo partly drawn) [Example 509, (S)-N′-((1-hydroxy-1,2,3,5,6,7-hexahydro-s-indacen-4-yl)carbamoyl)-5-(2-hydroxypropan-2-yl)thiazole-2-sulfonimidamide], for which the IC50 was above 30 µM. On the same count and under the same terms, for `CC(C)(O)c1cnc([S@@](N)(=O)=NC(=O)Nc2c3c(cc4c2C(O)CC4)CCC3)s1` (stereo partly drawn) [Example 511, (S)-N′-((3-hydroxy-1,2,3,5,6,7-hexahydro-s-indacen-4-yl)carbamoyl)-5-(2-hydroxypropan-2-yl)thiazole-2-sulfonimidamide] the value was above 30 µM.

The same assay, now with this note: hTHP-1 assay containing 2% fetal bovine serum, Table B2, class symbols; read-out: IC50.
Regarding `NS(=O)(=NC(=O)Nc1c2c(cc3c1CCC3)CCC2)c1ccc(C2CCNC2)cc1F` (stereo not shown) [Example 500, 2-Fluoro-N′-((1,2,3,5,6,7-hexahydro-s-indacen-4-yl)carbamoyl)-4-(pyrrolidin-3-yl)benzenesulfonimidamide], the IC50 lay in the range of 5 to 30 µM.

For `CC(O)(CO)c1cc(F)c(S(N)(=O)=NC(=O)Nc2c3c(c(C#N)c4c2CCC4)CCC3)s1` [Example 631, (R,S) and (S,S)-N′-((8-cyano-1,2,3,5,6,7-hexahydro-s-indacen-4-yl)carbamoyl)-5-(1,2-dihydroxypropan-2-yl)-3-fluorothiophene-2-sulfonimidamide], the IC50 is 1 to 5 µM.
